The assay deals with T1, VEGF-R (vascular endothelial growth factor receptor-2) (Rattus norvegicus, UniProt O08775).
T1 construct: polyhistidine (6xHis) (N)
The experiment in a line: VEGF-R screening assay (33P FlashPlate kinase assay). The class given is biochemical.

Where [1] appears, read: Table 4 kinase selectivity, read-out: IC50, Assay 1 VEGF-R.
[2] abbreviates: Tables 1-3, >10 or >100 = no 50% inhibition at highest dose tested, read-out: VEGF-R IC50.

SMILES strings stand for the structures. Read-outs that look alike come from different tables or passages of the source.

A word on the IC50: it is the point on the concentration scale where inhibition reaches its midpoint.

T1 sequence (O08775 786-1343): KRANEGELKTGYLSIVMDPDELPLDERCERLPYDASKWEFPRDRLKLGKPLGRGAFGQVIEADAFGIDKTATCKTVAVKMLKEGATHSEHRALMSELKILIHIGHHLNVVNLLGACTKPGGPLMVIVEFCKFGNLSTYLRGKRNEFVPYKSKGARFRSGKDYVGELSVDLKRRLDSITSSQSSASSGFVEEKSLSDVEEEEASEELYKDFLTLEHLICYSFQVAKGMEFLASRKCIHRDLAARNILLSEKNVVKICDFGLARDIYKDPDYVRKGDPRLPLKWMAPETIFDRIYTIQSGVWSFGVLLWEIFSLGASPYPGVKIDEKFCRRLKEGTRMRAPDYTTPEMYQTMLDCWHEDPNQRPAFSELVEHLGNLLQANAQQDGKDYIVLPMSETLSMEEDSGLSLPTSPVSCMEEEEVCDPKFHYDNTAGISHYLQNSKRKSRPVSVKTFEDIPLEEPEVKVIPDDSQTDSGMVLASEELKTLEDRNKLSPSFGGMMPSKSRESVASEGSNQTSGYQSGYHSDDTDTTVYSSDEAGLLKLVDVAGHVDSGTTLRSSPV

Regarding `OCCCNc1cncc(-c2cncc(Nc3cccc(Cl)c3)n2)c1` [Cmd 4], the half-inhibitory concentration (IC50) by setting is: under setting [1], 42 nM; under setting [2], 80 nM.

On to `OCCCCNc1cncc(-c2cncc(Nc3cccc(Cl)c3)n2)c1` [Cmd 32], for which the half-maximal inhibitory concentration (IC50) was determined as 59 nM under setting [1] and 60 nM under setting [2].

As to `CN(C)CCNc1cncc(-c2cncc(Nc3cccc(Cl)c3)n2)c1` [Cmd 33, N′-[5-[6-[(3-chlorophenyl)amino]pyrazinyl]-3-pyridinyl]-N^2,N^2-dimethyl-1,2-ethanediamine], the IC50 is, setting by setting: under setting [1], 70 nM; under setting [2], 70 nM.

As to `CN(C)CCCNc1cncc(-c2cncc(Nc3cccc(Cl)c3)n2)c1` [Cmd 35], the IC50 reads like this: under setting [1], 94 nM; under setting [2], 90 nM.

Regarding `O=C(NCCCO)c1cncc(-c2cncc(Nc3cccc(Cl)c3)n2)c1` [Cmd 39], the 50% inhibitory concentration (IC50) by setting is: under setting [1], 2500 nM; under setting [2], 2500 nM.

Take `Clc1cccc(Nc2cncc(-c3cncc(NCCCc4ccncc4)c3)n2)c1` [Cmd 71]: the IC50 reads like this: under setting [1], 52 nM; under setting [2], 52 nM.

For `Clc1cccc(Nc2cncc(-c3cncc(NCCCc4cccnc4)c3)n2)c1` [Cmd 72], the IC50 under setting [1] came out at 89 nM and the half-inhibitory concentration (IC50) under setting [2] amounted to 89 nM.

Turning to `Clc1cccc(Nc2cncc(-c3cncc(NCCCN4CCCCC4)c3)n2)c1` [Cmd 73], the half-maximal inhibitory concentration (IC50) is, setting by setting: under setting [1], 105 nM; under setting [2], 105 nM.

Turning to `Clc1cccc(Nc2cncc(-c3cncc(NCCCn4cccn4)c3)n2)c1` [Cmd 75], the IC50 by setting is: under setting [1], 79 nM; under setting [2], 79 nM.

Take `Clc1cccc(Nc2cncc(-c3cncc(NCCCn4cncn4)c3)n2)c1` [Cmd 76]: the IC50 by setting is: under setting [1], 52 nM; under setting [2], 52 nM.

The values above are taken from US6710048B2, “Pyrazine derivatives as modulators of tyrosine kinases” (Ortho-McNeil Pharmaceutical, Inc., priority 2000, dated 2004).
